Test results taken from US7118895B2, “Process for producing aglycon by using diglycosidase and flavor-improved food containing the aglycon and converting agent to be used in the process” (Amano Enzyme Inc., priority 2000, dated 2006).

System: Crude diglycosidase
Assay: Examination of temperature in the conversion into isoflavone aglycons by diglycosidase using soybean materials
Format: biochemical, Penicillium multicolor IAM7153
Parameters: Decomposition efficiency of glycitin family in roasted soy flour / Decomposition efficiency of daidzin family in roasted soy flour / Decomposition efficiency of genistin family in soymilk / Decomposition efficiency of daidzin family in soymilk / Decomposition efficiency of glycitin family in defatted soybean / Decomposition efficiency of daidzin family in defatted soybean: concentration or dose not given beside the values
Settings: for maximum isolation of aglycons: reaction at 55° C. for 6 hours
Outline: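 Temperature series (30-80° C.) of crude diglycosidase, diluted to 1.88 AU/mL in 20 mM acetate pH 4.0, acting on roasted soy flour, soymilk, defatted soybean or soy protein concentrate. Samples quenched with ethanol after 0-6 h, centrifuged, filtered and analyzed by HPLC for glycosides versus aglycons.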

[1] = 30 °C, heat treatment of enzyme: no, 0 h
[2] = 30 °C, heat treatment of enzyme: no, 1 h
[3] = 30 °C, heat treatment of enzyme: no, 3 h
[4] = 30 °C, heat treatment of enzyme: no, 6 h
[5] = 30 °C, heat treatment of enzyme: yes, 6 h
[6] = 45 °C, heat treatment of enzyme: no, 0 h
[7] = 45 °C, heat treatment of enzyme: no, 1 h
[8] = 45 °C, heat treatment of enzyme: no, 3 h
[9] = 45 °C, heat treatment of enzyme: no, 6 h
[10] = 45 °C, heat treatment of enzyme: yes, 6 h
[11] = 55 °C, heat treatment of enzyme: no, 0 h
[12] = 55 °C, heat treatment of enzyme: no, 1 h
[13] = 55 °C, heat treatment of enzyme: no, 3 h
[14] = 55 °C, heat treatment of enzyme: no, 6 h
[15] = 55 °C, heat treatment of enzyme: yes, 6 h
[16] = 65 °C, heat treatment of enzyme: no, 0 h
[17] = 65 °C, heat treatment of enzyme: no, 1 h
[18] = 65 °C, heat treatment of enzyme: no, 3 h
[19] = 65 °C, heat treatment of enzyme: no, 6 h
[20] = 65 °C, heat treatment of enzyme: yes, 6 h
[21] = 80 °C, heat treatment of enzyme: no, 0 h
[22] = 80 °C, heat treatment of enzyme: no, 1 h
[23] = 80 °C, heat treatment of enzyme: no, 3 h
[24] = 80 °C, heat treatment of enzyme: no, 6 h
[25] = 80 °C, heat treatment of enzyme: yes, 6 h

COc1cc2c(=O)c(-c3ccc(O)cc3)coc2cc1O [glycitein]
Decomposition efficiency of glycitin family in defatted soybean (30° C., heat treatment of enzyme no, reaction time 0 h): 38.7%
Decomposition efficiency of glycitin family in defatted soybean (30° C., heat treatment of enzyme no, reaction time 1 h): 51.7%
Decomposition efficiency of glycitin family in defatted soybean (30° C., heat treatment of enzyme no, reaction time 3 h): 55.4%
Decomposition efficiency of glycitin family in defatted soybean (30° C., heat treatment of enzyme no, reaction time 6 h): 54.4%
Decomposition efficiency of glycitin family in defatted soybean (30° C., heat treatment of enzyme yes, reaction time 6 h): 54.9%
Decomposition efficiency of glycitin family in concentrated soybean protein [1]: 11.4%
Decomposition efficiency of glycitin family in roasted soy flour [1]: 10.4%
Decomposition efficiency of glycitin family in soymilk [1]: 8.1%
Decomposition efficiency of glycitin family in concentrated soybean protein [2]: 17.5%
Decomposition efficiency of glycitin family in roasted soy flour [2]: 31.5%
Decomposition efficiency of glycitin family in soymilk [2]: 49.0%
Decomposition efficiency of glycitin family in concentrated soybean protein [3]: 26.9%
Decomposition efficiency of glycitin family in roasted soy flour [3]: 66.8%
Decomposition efficiency of glycitin family in soymilk [3]: 60.4%
Decomposition efficiency of glycitin family in concentrated soybean protein [4]: 40.3%
Decomposition efficiency of glycitin family in roasted soy flour [4]: 80.9%
Decomposition efficiency of glycitin family in soymilk [4]: 71.6%
Decomposition efficiency of glycitin family in concentrated soybean protein [5]: 11.3%
Decomposition efficiency of glycitin family in roasted soy flour [5]: 11.1%
Decomposition efficiency of glycitin family in soymilk [5]: 7.9%
Decomposition efficiency of glycitin family in defatted soybean (45° C., heat treatment of enzyme no, reaction time 0 h): 34.8%
Decomposition efficiency of glycitin family in defatted soybean (45° C., heat treatment of enzyme no, reaction time 1 h): 55.7%
Decomposition efficiency of glycitin family in defatted soybean (45° C., heat treatment of enzyme no, reaction time 3 h): 55.2%
Decomposition efficiency of glycitin family in defatted soybean (45° C., heat treatment of enzyme no, reaction time 6 h): 59.0%
Decomposition efficiency of glycitin family in defatted soybean (45° C., heat treatment of enzyme yes, reaction time 6 h): 55.8%
Decomposition efficiency of glycitin family in concentrated soybean protein [6]: 11.4%
Decomposition efficiency of glycitin family in roasted soy flour [6]: 10.4%
Decomposition efficiency of glycitin family in soymilk [6]: 8.2%
Decomposition efficiency of glycitin family in concentrated soybean protein [7]: 35.2%
Decomposition efficiency of glycitin family in roasted soy flour [7]: 60.2%
Decomposition efficiency of glycitin family in soymilk [7]: 53.8%
Decomposition efficiency of glycitin family in concentrated soybean protein [8]: 49.6%
Decomposition efficiency of glycitin family in roasted soy flour [8]: 67.4%
Decomposition efficiency of glycitin family in soymilk [8]: 70.1%
Decomposition efficiency of glycitin family in concentrated soybean protein [9]: 64.9%
Decomposition efficiency of glycitin family in roasted soy flour [9]: 85.0%
Decomposition efficiency of glycitin family in soymilk [9]: 84.7%
Decomposition efficiency of glycitin family in concentrated soybean protein [10]: 11.3%
Decomposition efficiency of glycitin family in roasted soy flour [10]: 13.4%
Decomposition efficiency of glycitin family in soymilk [10]: 7.4%
Decomposition efficiency of glycitin family in defatted soybean (55° C., heat treatment of enzyme no, reaction time 0 h): 38.7%
Decomposition efficiency of glycitin family in defatted soybean (55° C., heat treatment of enzyme no, reaction time 1 h): 55.2%
Decomposition efficiency of glycitin family in defatted soybean (55° C., heat treatment of enzyme no, reaction time 3 h): 57.4%
Decomposition efficiency of glycitin family in defatted soybean (55° C., heat treatment of enzyme no, reaction time 6 h): 57.3%
Decomposition efficiency of glycitin family in defatted soybean (55° C., heat treatment of enzyme yes, reaction time 6 h): 54.5%
Decomposition efficiency of glycitin family in concentrated soybean protein [11]: 11.2%
Decomposition efficiency of glycitin family in roasted soy flour [11]: 10.4%
Decomposition efficiency of glycitin family in soymilk [11]: 7.6%
Decomposition efficiency of glycitin family in concentrated soybean protein [12]: 51.4%
Decomposition efficiency of glycitin family in roasted soy flour [12]: 69.9%
Decomposition efficiency of glycitin family in soymilk [12]: 60.9%
Decomposition efficiency of glycitin family in concentrated soybean protein [13]: 69.7%
Decomposition efficiency of glycitin family in roasted soy flour [13]: 87.9%
Decomposition efficiency of glycitin family in soymilk [13]: 72.3%
Decomposition efficiency of glycitin family in concentrated soybean protein [14]: 72.7%
Decomposition efficiency of glycitin family in roasted soy flour [14]: 94.0%
Decomposition efficiency of glycitin family in soymilk [14]: 83.5%
Decomposition efficiency of glycitin family in concentrated soybean protein [15]: 11.3%
Decomposition efficiency of glycitin family in roasted soy flour [15]: 11.0%
Decomposition efficiency of glycitin family in soymilk [15]: 6.7%
Decomposition efficiency of glycitin family in defatted soybean (65° C., heat treatment of enzyme no, reaction time 0 h): 34.8%
Decomposition efficiency of glycitin family in defatted soybean (65° C., heat treatment of enzyme no, reaction time 1 h): 54.7%
Decomposition efficiency of glycitin family in defatted soybean (65° C., heat treatment of enzyme no, reaction time 3 h): 57.9%
Decomposition efficiency of glycitin family in defatted soybean (65° C., heat treatment of enzyme no, reaction time 6 h): 60.0%
Decomposition efficiency of glycitin family in defatted soybean (65° C., heat treatment of enzyme yes, reaction time 6 h): 51.2%
Decomposition efficiency of glycitin family in concentrated soybean protein [16]: 11.4%
Decomposition efficiency of glycitin family in roasted soy flour [16]: 10.4%
Decomposition efficiency of glycitin family in soymilk [16]: 8.1%
Decomposition efficiency of glycitin family in concentrated soybean protein [17]: 58.6%
Decomposition efficiency of glycitin family in roasted soy flour [17]: 65.5%
Decomposition efficiency of glycitin family in soymilk [17]: 57.6%
Decomposition efficiency of glycitin family in concentrated soybean protein [18]: 64.0%
Decomposition efficiency of glycitin family in roasted soy flour [18]: 69.0%
Decomposition efficiency of glycitin family in soymilk [18]: 65.7%
Decomposition efficiency of glycitin family in concentrated soybean protein [19]: 63.8%
Decomposition efficiency of glycitin family in roasted soy flour [19]: 71.0%
Decomposition efficiency of glycitin family in soymilk [19]: 74.5%
Decomposition efficiency of glycitin family in concentrated soybean protein [20]: 11.4%
Decomposition efficiency of glycitin family in roasted soy flour [20]: 10.4%
Decomposition efficiency of glycitin family in soymilk [20]: 7.2%
Decomposition efficiency of glycitin family in defatted soybean (80° C., heat treatment of enzyme no, reaction time 0 h): 34.8%
Decomposition efficiency of glycitin family in defatted soybean (80° C., heat treatment of enzyme no, reaction time 1 h): 53.9%
Decomposition efficiency of glycitin family in defatted soybean (80° C., heat treatment of enzyme no, reaction time 3 h): 55.0%
Decomposition efficiency of glycitin family in defatted soybean (80° C., heat treatment of enzyme no, reaction time 6 h): 59.7%
Decomposition efficiency of glycitin family in defatted soybean (80° C., heat treatment of enzyme yes, reaction time 6 h): 51.9%
Decomposition efficiency of glycitin family in concentrated soybean protein [21]: 11.4%
Decomposition efficiency of glycitin family in roasted soy flour [21]: 10.4%
Decomposition efficiency of glycitin family in soymilk [21]: 8.2%
Decomposition efficiency of glycitin family in concentrated soybean protein [22]: 23.8%
Decomposition efficiency of glycitin family in roasted soy flour [22]: 40.8%
Decomposition efficiency of glycitin family in soymilk [22]: 45.7%
Decomposition efficiency of glycitin family in concentrated soybean protein [23]: 23.4%
Decomposition efficiency of glycitin family in roasted soy flour [23]: 41.1%
Decomposition efficiency of glycitin family in soymilk [23]: 44.9%
Decomposition efficiency of glycitin family in concentrated soybean protein [24]: 22.8%
Decomposition efficiency of glycitin family in roasted soy flour [24]: 30.7%
Decomposition efficiency of glycitin family in soymilk [24]: 34.4%
Decomposition efficiency of glycitin family in concentrated soybean protein [25]: 11.4%
Decomposition efficiency of glycitin family in roasted soy flour [25]: 9.9%
Decomposition efficiency of glycitin family in soymilk [25]: 9.3%
maximum isolation of aglycons (concentrated soybean protein): about 73%
maximum isolation of aglycons (defatted soybean): about 57%
maximum isolation of aglycons (soy flour): about 94%
maximum isolation of aglycons (soymilk): about 84%
